Values quoted from earlier work as cited in US10328101B2, “Inactivation of papillomavirus” (priority 2001, dated 2019).

Test system: bovine papillomavirus
Details: iodine in the form of povidone-iodine; low concentrations (title of reference)

povidone-iodine
treating viruses including bovine papillomavirus: effective
